Source: patent publication US3974140A, “Ureidoacetamido-penicillins” (Bayer Aktiengesellschaft, priority 1970, dated 1976)

Columns and labels:
Assay in all cases: MIC, liquid medium test tube series dilution test
Proteus vulg. 3400 = type: cell-based, Proteus vulgaris; details: Proteus vulg. 3400, 24 hours, 37°C
Outline: (§1)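 Read-out: visual turbidity after 24 h at 37°C. The MIC, in units/ml, corresponds to the non-turbid tube in a liquid-medium test tube dilution series prepared in complete nutrient medium.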

Proteus vulg. 1017 = type: cell-based, Proteus vulgaris; details: Proteus vulg. 1017, 24 hours, 37°C
Outline: as §1

E. coli 14 = type: cell-based; details: E. coli 14, 24 hours, 37°C
Outline: as §1

E. coli C 165 = type: cell-based; details: E. coli C 165, 24 hours, 37°C
Outline: as §1

Klebsiella 63 = type: cell-based; details: Klebsiella 63, 24 hours, 37°C
Outline: as §1

E. coli 183/58 = type: cell-based; details: E. coli 183/58, 24 hours, 37°C
Outline: as §1

Klebsiella K 10 = type: cell-based; details: Klebsiella K 10, 24 hours, 37°C
Outline: as §1

E. coli A 261 = type: cell-based; details: E. coli A 261, 24 hours, 37°C
Outline: as §1

[1] = test system: Streptoc. faec. ATCC 9790; type: cell-based; details: Strep. faec. (Enterococcus) ATCC 9790, 24 hours, 37°C
Outline: as §1

Staph. aureus 133 = type: cell-based, Staphylococcus aureus; details: Staph. aureus 133, 24 hours, 37°C
Outline: as §1

Staph. aureus 1777 E = type: cell-based, Staphylococcus aureus; details: 24 hours, 37°C
Outline: as §1

Psdm. aerug. Walter = type: cell-based, Pseudomonas aerug.; details: 24 hours, 37°C
Outline: as §1

Psdm. aerug. Bonn = type: cell-based, Pseudomonas aerug.; details: 24 hours, 37°C
Outline: as §1

SMILES | MIC (Proteus vulg. 3400) | MIC (Proteus vulg. 1017) | MIC (E. coli 14) | MIC (E. coli C 165) | MIC (Klebsiella 63) | MIC (E. coli 183/58) | MIC (Klebsiella K 10) | MIC (E. coli A 261) | MIC [1] | MIC (Staph. aureus 133) | MIC (Staph. aureus 1777 E) | MIC (Psdm. aerug. Walter) | MIC (Psdm. aerug. Bonn)
CN(C(=O)N[C@@H](C(=O)N[C@@H]1C(=O)N2[C@@H]1SC(C)(C)[C@@H]2C(=O)O)c1ccccc1)C(=O)N1CCCCC1 [Example 123, Sodium D(-)-α-(3-[1-piperidyl]-carbonyl-3-methyl-ureido)-benzylpenicillin] | 100 units/ml | 50 units/ml | 3.12 units/ml | 25 units/ml | 100 units/ml | 12.5 units/ml | 50 units/ml | > 400 units/ml | 200 units/ml | < 0.8 units/ml | 25 units/ml | 100 units/ml | 50 units/ml
CN(C(=O)N[C@@H](C(=O)N[C@@H]1C(=O)N2[C@@H]1SC(C)(C)[C@@H]2C(=O)O)c1ccccc1)C(=O)N1CCCC1 [Example 124, Sodium D(-)-α-(3-[1-pyrrolidyl]-carbonyl-3-methyl-ureido)-benzylpenicillin] | 50 units/ml | 50 units/ml | 3.12 units/ml | 12.5 units/ml | 50 units/ml | 25 units/ml | 50 units/ml | > 400 units/ml | 200 units/ml | < 0.78 units/ml | 25 units/ml | 100 units/ml | 50 units/ml
CCN(CC)C(=O)N(C)C(=O)N[C@@H](C(=O)N[C@@H]1C(=O)N2[C@@H]1SC(C)(C)[C@@H]2C(=O)O)c1ccccc1 [Example 126, Sodium D(-)-α-(3-diethylaminocarbonyl-3-methyl-ureido)-benzylpenicillin] | 100 units/ml | 100 units/ml | 12.5 units/ml | 50 units/ml | 200 units/ml | 50 units/ml | 100 units/ml | > 400 units/ml | 200 units/ml | 1.56 units/ml | 100 units/ml | 200 units/ml | 100 units/ml
CN(C(=O)N[C@@H](C(=O)N[C@@H]1C(=O)N2[C@@H]1SC(C)(C)[C@@H]2C(=O)O)c1ccccc1)C(=O)c1ccc(Cl)cc1[N+](=O)[O-] [Example 127, Sodium D(-)-α-(3-[2-nitro-4-chlorobenzoyl]-3-methyl-ureido)-benzylpenicillin] | 6.25 units/ml | 3.12 units/ml | 0.78 units/ml | 3.12 units/ml | 12.5 units/ml | 1.56 units/ml | 12.5 units/ml | 50 units/ml | 25 units/ml | < 0.78 units/ml | 12.5 units/ml | 25 units/ml | 12.5 units/ml
CN(C(=O)NC(C(=O)N[C@@H]1C(=O)N2[C@@H]1SC(C)(C)[C@@H]2C(=O)O)c1cccs1)C(=O)c1ccccc1Cl (stereo partly drawn) [Example 135, Sodium α-(3-o-chlorobenzoyl-3-methyl-ureido)-α-thienyl(2)-methylpenicillin] | 100 units/ml | 25 units/ml | 12.5 units/ml | 50 units/ml | 400 units/ml | 25 units/ml | 100 units/ml | 400 units/ml | 200 units/ml | < 0.8 units/ml | 100 units/ml | 100 units/ml | 400 units/ml

Next, values leading:

MIC (Proteus vulg. 3400) | MIC (Proteus vulg. 1017) | MIC (E. coli 14) | MIC (E. coli C 165) | MIC (Klebsiella 63) | MIC (E. coli 183/58) | MIC (Klebsiella K 10) | MIC (E. coli A 261) | MIC [1] | MIC (Staph. aureus 133) | MIC (Staph. aureus 1777 E) | MIC (Psdm. aerug. Walter) | MIC (Psdm. aerug. Bonn) | SMILES
100 units/ml | 50 units/ml | 3.12 units/ml | 25 units/ml | 100 units/ml | 50 units/ml | 200 units/ml | > 400 units/ml | 200 units/ml | 3.12 units/ml | 50 units/ml | 100 units/ml | 50 units/ml | CN(C(=O)N[C@@H](C(=O)N[C@@H]1C(=O)N2[C@@H]1SC(C)(C)[C@@H]2C(=O)O)c1ccccc1)C(=O)N1CCOCC1 [Example 125, Sodium D(-)-α-(3-[4-morpholinyl]-carbonyl-3-methyl-ureido)-benzylpenicillin]
6.25 units/ml | 1.56 units/ml | 0.78 units/ml | 1.56 units/ml | 6.25 units/ml | < 0.78 units/ml | 6.25 units/ml | 50 units/ml | 50 units/ml | < 0.78 units/ml | 12.5 units/ml | 12.5 units/ml | 6.25 units/ml | CN(C(=O)N[C@@H](C(=O)N[C@@H]1C(=O)N2[C@@H]1SC(C)(C)[C@@H]2C(=O)O)c1ccccc1)C(=O)c1ccccc1Br [Example 128, Sodium D(-)-α-(3-[2-bromobenzoyl]-3-methyl-ureido)-benzyl penicillin]
6.25 units/ml | 3.12 units/ml | 0.78 units/ml | 1.56 units/ml | 6.25 units/ml | 1.56 units/ml | 6.25 units/ml | 50 units/ml | 50 units/ml | < 0.78 units/ml | 6.25 units/ml | 12.5 units/ml | 6.25 units/ml | Cc1ccccc1C(=O)N(C)C(=O)N[C@@H](C(=O)N[C@@H]1C(=O)N2[C@@H]1SC(C)(C)[C@@H]2C(=O)O)c1ccccc1 [Example 129, Sodium D(-)-α-(3-[2-methylbenzoyl]-3-methyl-ureido)-benzylpenicillin]
0.8-4 units/ml | 0.8-4 units/ml | 0.8 units/ml | < 0.8 units/ml | 4-20 units/ml | < 0.8 units/ml | 0.8-4 units/ml | 20-100 units/ml | 4-20 units/ml | < 0.8 units/ml | 20-100 units/ml | 0.8-4 units/ml | 0.8-4 units/ml | CN(C(=O)C=Cc1cccc([N+](=O)[O-])c1)C(=O)N[C@@H](C(=O)N[C@@H]1C(=O)N2[C@@H]1SC(C)(C)[C@@H]2C(=O)O)c1ccccc1 [Example 131, Sodium D(-)-α-(3-m-nitrocinnamoyl-3-methyl-ureido)-benzylpenicillin]
0.8-4 units/ml | 4-20 units/ml | 0.8 units/ml | 0.8-4 units/ml | 20-100 units/ml | < 0.8 units/ml | 4-20 units/ml | > 400 units/ml | 4-20 units/ml | < 0.8 units/ml | 20-100 units/ml | 4-20 units/ml | 4-20 units/ml | CN(C(=O)Cc1ccc([N+](=O)[O-])cc1)C(=O)N[C@@H](C(=O)N[C@@H]1C(=O)N2[C@@H]1SC(C)(C)[C@@H]2C(=O)O)c1ccccc1 [Example 132, Sodium D(-)-α-(3-[4-nitrophenacetyl]-3-methyl-ureido)-benzylpenicillin]
50 units/ml | 12.5 units/ml | 3.1 units/ml | 25 units/ml | 200 units/ml | 25 units/ml | 50 units/ml | > 400 units/ml | 100 units/ml | 3.1 units/ml | 200 units/ml | 50 units/ml | 100 units/ml | CC1(C)S[C@@H]2[C@H](NC(=O)[C@H](NC(=O)N3CCCCC3=O)c3ccccc3)C(=O)N2[C@H]1C(=O)O [Example 134, Sodium D(-)-α-(1-piperidin-2-on-1-yl-carbonylamino)-benzylpenicillin]
100 units/ml | 25 units/ml | 6.25 units/ml | 25 units/ml | 50 units/ml | 12.5 units/ml | 50 units/ml | 200 units/ml | 50 units/ml | < 0.8 units/ml | 12.5 units/ml | 100 units/ml | 25 units/ml | CCN(C(=O)N[C@@H](C(=O)N[C@@H]1C(=O)N2[C@@H]1SC(C)(C)[C@@H]2C(=O)O)c1ccccc1)C(=O)c1ccccc1Cl [Example 138, Sodium D(-)-α-(3-o-chlorobenzoyl-3-ethyl-ureido)-benzylpenicillin]
